Molecular target: T1, ΔF508-CFTR (Homo sapiens, UniProt P13569, DEL508-508)
T1 construct: expressed in transfected cells
Test: Membrane potential optical (FRET/VIPR) assay, identification of correction compounds
Type: cell-based
Conditions: Table 3, assay not given; for Emax: read-out: % Activity / % Efficacy (relative efficacy)
Excerpt: I) Membrane Potential Optical Methods for Assaying ΔF508-CFTR Modulation Properties of Compounds
These voltage sensitive assays are based on the change in fluorescence resonant energy transfer (FRET) between the membrane-soluble, voltage-sensitive dye, DiSBAC2(3), and a fluorescent phospholipid, CC2-DMPE, which is attached to the outer leaflet of the plasma membrane and acts as a FRET donor. Changes in membrane potential (Vm) cause the negatively charged DiSBAC2(3) to redistribute across the plasma membrane and the amount of energy transfer from CC2-DMPE changes accordingly. The changes in fluorescence emission were monitored using VIPR™ II, which is an integrated liquid handler and fluorescent detector designed to conduct cell-based screens in 96- or 384-well microtiter plates.
Identification of Correction Compounds
To identify small molecules that correct the trafficking defect associated with ΔF508-CFTR; a single-addition HTS assay format was developed. The cells were incubated in serum-free medium for 16 hrs at 37° C. in the presence or absence (negative control) of test compound. As a positive control, cells plated in 384-well plates were incubated for 16 hrs at 27° C. to “temperature-correct” ΔF508-CFTR. The cells were subsequently rinsed 3× with Krebs Ringers solution and loaded with the voltage-sensitive dyes. To activate ΔF508-CFTR, 10 μM forskolin and the CFTR potentiator, genistein (20 μM), were added along with Cl^− free medium to each well. The addition of Cl^− free medium promoted Cl^− efflux in response to ΔF508-CFTR activation and the resulting membrane depolarization was optically monitored using the FRET-based voltage-sensor dyes.
• Bath Solution #1: (in mM) NaCl 160, KCl 4.5, CaCl2 2, MgCl2 1, HEPES 10, pH 7.4 with NaOH. • Chloride-free bath solution: Chloride salts in Bath Solution #1 are substituted with gluconate salts. • CC2-DMPE: Prepared as a 10 mM stock solution in DMSO and stored at −20° C. • DiSBAC2(3): Prepared as a 10 mM stock in DMSO and stored at −20° C.
NIH3T3 mouse fibroblasts stably expressing ΔF508-CFTR are used for optical measurements of membrane potential. The cells are maintained at 37° C. in 5% CO2 and 90% humidity in Dulbecco's modified Eagle's medium supplemented with 2 mM glutamine, 10% fetal bovine serum, 1×NEAA, β-ME, 1×pen/strep, and 25 mM HEPES in 175 cm^2 culture flasks. For all optical assays, the cells were seeded at 30,000/well in 384-well matrigel-coated plates and cultured for 2 hrs at 37° C. before culturing at 27° C. for 24 hrs. for the potentiator assay.

T1 sequence (P13569 with tags, fused parts or gaps DEL508-508): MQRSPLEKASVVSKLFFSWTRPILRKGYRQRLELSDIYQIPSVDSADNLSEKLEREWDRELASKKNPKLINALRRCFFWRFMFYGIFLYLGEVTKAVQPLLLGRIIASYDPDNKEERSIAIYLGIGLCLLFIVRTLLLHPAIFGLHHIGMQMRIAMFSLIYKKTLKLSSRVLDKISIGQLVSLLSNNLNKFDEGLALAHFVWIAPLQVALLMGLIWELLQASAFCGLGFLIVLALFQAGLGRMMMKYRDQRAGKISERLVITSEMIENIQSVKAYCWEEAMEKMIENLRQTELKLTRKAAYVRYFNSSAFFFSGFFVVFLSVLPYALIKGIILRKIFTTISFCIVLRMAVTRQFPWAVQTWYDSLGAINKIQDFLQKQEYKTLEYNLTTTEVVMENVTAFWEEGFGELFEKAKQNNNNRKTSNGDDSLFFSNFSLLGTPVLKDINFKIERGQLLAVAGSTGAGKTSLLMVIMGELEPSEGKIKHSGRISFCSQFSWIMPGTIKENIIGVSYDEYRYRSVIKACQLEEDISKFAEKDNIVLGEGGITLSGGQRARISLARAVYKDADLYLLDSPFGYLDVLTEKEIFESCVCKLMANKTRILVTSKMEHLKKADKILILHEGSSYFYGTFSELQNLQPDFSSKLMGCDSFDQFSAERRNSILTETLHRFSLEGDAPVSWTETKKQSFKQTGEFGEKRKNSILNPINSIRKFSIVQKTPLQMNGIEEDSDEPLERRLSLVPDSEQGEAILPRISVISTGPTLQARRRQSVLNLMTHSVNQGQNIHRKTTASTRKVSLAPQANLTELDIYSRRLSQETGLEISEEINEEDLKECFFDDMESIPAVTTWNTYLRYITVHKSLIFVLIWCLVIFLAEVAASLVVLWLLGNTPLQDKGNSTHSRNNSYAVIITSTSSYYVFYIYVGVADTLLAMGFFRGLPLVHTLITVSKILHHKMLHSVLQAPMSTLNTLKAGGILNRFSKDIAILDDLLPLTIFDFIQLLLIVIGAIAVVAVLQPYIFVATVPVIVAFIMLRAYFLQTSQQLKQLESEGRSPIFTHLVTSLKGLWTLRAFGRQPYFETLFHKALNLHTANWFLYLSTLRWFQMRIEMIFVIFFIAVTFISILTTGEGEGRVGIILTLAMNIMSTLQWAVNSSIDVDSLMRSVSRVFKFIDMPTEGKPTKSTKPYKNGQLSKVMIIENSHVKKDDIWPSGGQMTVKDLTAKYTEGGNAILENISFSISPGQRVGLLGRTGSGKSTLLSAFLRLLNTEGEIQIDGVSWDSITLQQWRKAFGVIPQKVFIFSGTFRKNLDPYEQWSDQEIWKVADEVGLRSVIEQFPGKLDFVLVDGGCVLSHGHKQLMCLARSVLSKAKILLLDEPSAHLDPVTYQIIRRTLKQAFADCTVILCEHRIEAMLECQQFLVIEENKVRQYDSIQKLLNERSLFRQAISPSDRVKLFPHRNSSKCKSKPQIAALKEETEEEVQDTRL

SMILES	EC50 [µM]	Emax [%]	% Activity / % Efficacy (relative efficacy)
CN(C)C(c1ccc(S(C)(=O)=O)cc1)c1cnc(NC(=O)C2(c3ccc4c(c3)OCO4)CC2)s1 (stereo not drawn) [Example 381]	10 to 25	25 to 100	
COCC1CCCN1C(c1cccc(OC)c1)c1cnc(NC(=O)C2(c3ccc4c(c3)OCO4)CC2)s1 (stereo not drawn) [Example 353]	< 10	> 100	
CCCc1nc(NC(=O)C2(c3ccc4c(c3)OCO4)CC2)sc1C(=O)OCC [Example 108]	< 10	> 100	
Nc1ccc(Sc2cnc(NC(=O)C3(c4ccc5c(c4)OCO5)CC3)s2)cc1 [Example 100]	< 10		++ (“++” means between 25% to 100%)
O=C(Nc1ncc(CN2CC[C@H](O)C2)s1)C1(c2ccc3c(c2)OCO3)CC1 [Example 320]	10 to 25	> 100	
COc1cccc(C2(C(=O)Nc3ncc(Cc4ccccc4OC)s3)CC2)c1 [Example 67]	25 to 60		++ (“++” means between 25% to 100%)
O=C(Nc1ncc(C(SCCCCO)c2ccccc2Cl)s1)C1(c2ccc3c(c2)OCO3)CC1 (stereo not drawn) [Example 131]	< 10		
Cc1cc(NC(=O)C2(c3ccc4c(c3)OCO4)CC2)n(Cc2ccccc2)n1 [Example 297]	10 to 25	25 to 100	
O=C(Nc1ncc(C(OCCCCO)c2ccccc2Cl)s1)C1(c2ccc3c(c2)OCO3)CC1 (stereo not drawn) [Example 275]	< 10		+ (“+” means<25%)
Cc1cc(F)ccc1Cc1cnc(NC(=O)C2(c3ccc4c(c3)OCO4)CC2)s1 [Example 283]	< 10		++ (“++” means between 25% to 100%)
COc1ccc(C2(C(=O)Nc3nc(-c4ccccc4)cs3)CC2)cc1 [Example 17]	< 10	> 100	
COc1ccc(C2(C(=O)Nc3ncc(Cc4ccncc4Cl)s3)CC2)cc1 [Example 262]	< 10		+++ (“+++” means>100%)
O=C(Nc1ncc(CN2CC[C@@H](O)C2)s1)C1(c2ccc3c(c2)OCO3)CC1 [Example 319]	10 to 25	25 to 100	
COC[C@@H]1CCCN1C(c1ccc(S(C)(=O)=O)cc1)c1cnc(NC(=O)C2(c3ccc4c(c3)OCO4)CC2)s1 (stereo partly drawn) [Example 379]	10 to 25	25 to 100	
O=C(Nc1ncc(Sc2ccc(Cl)cc2)s1)C1(c2ccc3c(c2)OCO3)CC1 [Example 103]	25 to 60		++ (“++” means between 25% to 100%)
COc1ccc(C(c2cnc(NC(=O)C3(c4ccc5c(c4)OCO5)CC3)s2)N(C)C)cc1 (stereo not drawn) [Example 350]	< 10	> 100	
O=C(Nc1ncc(C(OCCN2CCCC2)c2ccccc2Cl)s1)C1(c2ccc3c(c2)OCO3)CC1 (stereo not drawn) [Example 255]	< 10		
COc1ccc(C2(C(=O)Nc3ncc(Sc4ccccc4Cl)s3)CC2)cc1 [Example 36]	< 10	25 to 100	

SMILES	EC50 [µM]	Emax [%]	% Activity / % Efficacy (relative efficacy)
CC(C)(C)C(c1cnc(NC(=O)C2(c3ccc4c(c3)OCO4)CC2)s1)N1CCC(O)CC1 (stereo not drawn) [Example 392]	10 to 25	> 100	
COC[C@@H]1CCCN1C(c1cnc(NC(=O)C2(c3ccc4c(c3)OCO4)CC2)s1)C(C)(C)C (stereo partly drawn) [Example 387]	10 to 25	> 100	
O=C(Nc1nc(-c2ccccc2Cl)cs1)C1(c2ccc3c(c2)OCO3)CC1 [Example 81]	< 10		+++ (“+++” means>100%)
O=C(Nc1ncc(Cc2ccccc2Cl)s1)C1(c2ccc(OC(F)(F)F)cc2)CC1 [Example 174]	< 10		+++ (“+++” means>100%)
O=C(Nc1ncc(C2(c3ccccc3)CCCC2)s1)C1(c2ccc3c(c2)OCO3)CC1 [Example 111]	< 10		+++ (“+++” means>100%)
C=CCN(C)C(c1cnc(NC(=O)C2(c3ccc4c(c3)OCO4)CC2)s1)c1ccccc1Cl (stereo not drawn) [Example 218]	< 10		+++ (“+++” means>100%)
COc1ccc(-c2csc(NC(=O)C3(c4ccc(OC)cc4)CC3)n2)cc1 [Example 79]	< 10		+++ (“+++” means>100%)
O=C(Nc1ncc(C(OCCCCN2CCC(O)CC2)c2ccccc2Cl)s1)C1(c2ccc3c(c2)OCO3)CC1 (stereo not drawn) [Example 279]	< 10		+++ (“+++” means>100%)
O=C(Nc1ncc(Cc2ccccc2Cl)s1)C1(c2ccc(O)cc2)CC1 [Example 317]	< 10	25 to 100	
COc1ccccc1Cc1cnc(NC(=O)C2(c3ccc(OC)c(OC)c3)CC2)s1 [Example 58]	< 10		+++ (“+++” means>100%)
COc1ccc(C(c2cnc(NC(=O)C3(c4ccc5c(c4)OCO5)CC3)s2)N2CCCCC2)cc1 (stereo not drawn) [Example 361]	< 10	> 100	
O=C(Nc1ncc(Cc2ccccc2Cl)s1)C1(c2cccc(F)c2)CCCCC1 [Example 305]	< 10	> 100	
O=C(Nc1ncc(C(OCC2CCOC2)c2ccccc2Cl)s1)C1(c2ccc3c(c2)OCO3)CC1 (stereo not drawn) [Example 258]	< 10	> 100	
COc1ccc(C2(C(=O)Nc3ncc(Cc4ccccc4OC)s3)CCOCC2)cc1 [Example 57]	< 10		+++ (“+++” means>100%)
COc1ccccc1-c1csc(NC(=O)C2(c3ccc4c(c3)OCO4)CC2)n1 [Example 112]	10 to 25		+ (“+” means<25%)
COc1cccc(C(c2csc(NC(=O)C3(c4ccc5c(c4)OCO5)CC3)n2)N2CCC(O)CC2)c1 (stereo not drawn) [Example 360]	10 to 25	> 100	
COCCN1CCN(C(c2cnc(NC(=O)C3(c4ccc5c(c4)OCO5)CC3)s2)c2ccccc2Cl)CC1 (stereo not drawn) [Example 238]	< 10		+++ (“+++” means>100%)

Results, then the compound that gave them:

EC50 [µM]	Emax [%]	% Activity / % Efficacy (relative efficacy)	SMILES
< 10	> 100		COC[C@H]1CCCN1C(Cc1ccccc1Cl)c1cnc(NC(=O)C2(c3ccc4c(c3)OCO4)CC2)s1 (stereo partly drawn) [Example 455]
< 10	> 100		O=C(Nc1ncc(C(NC2CCC2)c2ccccc2Cl)s1)C1(c2ccc3c(c2)OCO3)CC1 (stereo not drawn) [Example 417]
10 to 25	25 to 100		CC(C)(C)[C@@H](CO)NC(c1cnc(NC(=O)C2(c3ccc4c(c3)OCO4)CC2)s1)c1ccccc1Cl (stereo partly drawn) [Example 490]
< 10	> 100		COc1ccccc1C(c1cnc(NC(=O)C2(c3ccc4c(c3)OCO4)CC2)s1)N1CCOCC1 (stereo not drawn) [Example 399]
< 10	> 100		O=C(Nc1ncc(C(c2ccccc2Cl)N2CC[C@@H](O)C2)s1)C1(c2cccc(F)c2)CC1 (stereo partly drawn) [Example 447]
10 to 25	> 100		O=C(Nc1ncc(C(c2ccccc2Cl)N2CC[C@@H](O)C2)s1)C1(c2ccccc2F)CC1 (stereo partly drawn) [Example 448]
< 10	> 100		O=C(Nc1ncc(C(c2ccc(Cl)cc2Cl)N2CCCC2)s1)C1(c2ccc3c(c2)OCO3)CC1 (stereo not drawn) [Example 467]
< 10	> 100		CC(C)(C)C(c1cnc(NC(=O)C2(c3ccc4c(c3)OCO4)CC2)s1)N1CCOCC1 (stereo not drawn) [Example 394]
10 to 25	25 to 100		CCC(c1cnc(NC(=O)C2(c3ccc4c(c3)OCO4)CC2)s1)N1CCC(O)CC1 (stereo not drawn) [Example 396]
10 to 25	> 100		CCC(c1cnc(NC(=O)C2(c3ccc4c(c3)OCO4)CC2)s1)N1CCC[C@H]1COC (stereo partly drawn) [Example 404]
< 10	> 100		COc1ccc(C(c2cnc(NC(=O)C3(c4ccc5c(c4)OCO5)CC3)s2)N2CCOCC2)cc1 (stereo not drawn) [Example 400]
10 to 25	> 100		CCN(CC)C(c1cnc(NC(=O)C2(c3ccc4c(c3)OCO4)CC2)s1)C(C)(C)C (stereo not drawn) [Example 393]
	> 100		CC(C)CC(CO)NC(c1cnc(NC(=O)C2(c3ccc4c(c3)OCO4)CC2)s1)c1cccc2c1OC(F)(F)O2 (stereo not drawn) [Example 498]
< 10	25 to 100		O=C(Nc1ncc(C(c2ccccc2Cl)N2CC[C@@H](O)C2)s1)C1(c2cccc(C(F)(F)F)c2)CC1 (stereo partly drawn) [Example 441]
< 10	25 to 100		O=C(Nc1ncc(C(c2cccc3c2OC(F)(F)O3)N2CCCC2)s1)C1(c2ccc3c(c2)OCO3)CC1 (stereo not drawn) [Example 494]
< 10	> 100		COc1cccc(C2(C(=O)Nc3ncc(C(c4ccccc4Cl)N4CC[C@@H](O)C4)s3)CC2)c1 (stereo partly drawn) [Example 452]

— patent publication US7977322B2 (Vertex Pharmaceuticals Incorporated, priority 2004, dated 2011)
